Assay results reported in patent US20090312373A1, “METHODS FOR THE TREATMENT OF CANCER USING PIPERLONGUMINE AND PIPERLONGUMINE ANALOGS” (The General Hospital Corporation, priority 2008, published 2009).

Key:
[1] = system: patient-derived colon cancer tumor samples; experiment: Histoculture Drug Response Assay (HDRA), colon; assay type: cell-based, human
Excerpt: (§1) Piperlongumine (SP2007) was compared to a variety of known anti-cancer agents in a Histoculture Drug Response Assay (HDRA). HDRA is an assay that provides a reliable approach to determine the profile of in vivo chemo-sensitivity in cancer patients. The assay allows for a three-dimensional culture, the testing of patient tumor sensitivity, the evaluation of treatment option for individual patients with solid tumor types and a high correlation to clinical drug sensitivity (Flowers J L et al., Cancer Chemother. Pharmacol. 2003 September 52 (3): 253-261). The assays were performed by Anti-cancer Inc., (San Diego, Calif.). An average of twenty samples was tested for each tumor type.

human cancer cell lines [2] = experiment: SRB (Sulforhodamine B) staining assay in human cancer cell lines; assay type: cell-based
Procedure: The tumor growth inhibitory effect of piperlongumine was evaluated in a variety of human cancer cell lines. Cells were grown in ˜50-70% confluency and treated with piperlongumine and known anti-cancer agents at various concentrations (0.1-30 μM) and analyzed for cell death or viability by SRB (Sulforhodamine B) staining assay. The SRB assay is a well established assay that is used for the detection of cell death, viability or proliferation in drug screening.

[3] = system: EJ human bladder cancer cell xenografts; experiment: EJ human bladder cancer xenograft in nude mice; assay type: in vivo, mouse
Procedure: We tested piperlongumine in colon tumor, breast, melanoma or bladder tumor xenograft-bearing mice to evaluate the anti-tumor effect of piperlongumine. We examined EJ human bladder cancer cell xenografts (non-functional p53) to evaluate anti-tumor effects. A total of 2×10^6 EJ cells or SW480 cells were implanted subcutaneously on opposite site flanks in each of six nude/nude mice in each group. When tumor masses grew to ˜5-10 mm in diameter, piperlongumine was administered intraperitoneally (28 ug per each intraperitoneal administration, total 1.2 mg/kg) every 48 hours for 12 days (6 times total).

CDIP [4] = experiment: Western blot of CDIP expression in U2OS cells containing wt-p53; assay type: cell-based, human; settings: 5 μM and 10 μM
Procedure: Western blot analyses of CDIP expression in human cancer cells containing wt-p53 treated with piperlongumine (SP2007) (5 μM and 10 μM) is shown in FIG. 38. Beta-actin expression was used as a loading control.

[5] = Long-term piperlongumine treatment toxicity in mice; assay type: in vivo, mouse; settings: 2.4 mg/kg injected multiple times for 4 weeks
Procedure: Piperlongumine (2.4 mg/kg) was injected into mice (8 mice per group) multiple times for 4 weeks. […] After 4 weeks the mice were killed and examined for changes in gross histology in target organs.

[6] = system: patient-derived breast cancer tumor samples; experiment: Histoculture Drug Response Assay (HDRA), breast; assay type: cell-based, human
Excerpt: as §1

[7] = system: EJ Human Bladder Carcinoma Cells; experiment: Angiogenesis in EJ bladder carcinoma tumor bearing nude mice; assay type: in vivo, mouse; settings: 1.5 mg/kg i.p. every two days for 2.5 weeks
Procedure: EJ Human Bladder Carcinoma Cells (10^6 Cells) were Subcutaneously Transplanted into the back of the skin of immunodeficient nude mice (total 16 mice). After 2 weeks (tumor sizes of approximately 8-10 mm), piperlongumine (SP2007; 1.5 mg/kg) or vehicle (10% DMSO) was injected into tumor bearing mice by i.p. every two days for 2.5 weeks. The effect of piperlongumine was evaluated by opening the tumor site.

human cancer cell lines [8] = experiment: Cell growth inhibition and cell death/apoptosis in a panel of human cancer cell lines; assay type: cell-based
Excerpt: We evaluated the ability of piperlongumine to induce apoptosis in a panel of human cancer cells (>40 human cancer cell lines) including cell lines with both wt and mutant p53 status, including non-functional mutants (See Table 1).

[9] = system: Twist, N-cadherin and p120 catenin; experiment: Western blot of Twist, N-cadherin and p120 catenin in EJ and U2OS cells; assay type: cell-based, human; settings: 10 μM and 20 μM, 20 hours
Procedure: A scheme for piperlongumine (SP2007)-mediated repression of Twist expression and its downstream targets that are involved in tumor invasion/metastasis is presented in FIG. 39A. […] U2OS and EJ cells were treated with SP2007 at two concentrations (10 μM and 20 μM) as well as with DMSO as a solvent control. After 20 hours, cell lysates were extracted and western blotting was performed against Twist, N-cadherin and p120 catenin (Zymed and Sigma Aldrich). […] Female MMTV-PyVT mice at 8-9 weeks age were chosen for the studies. When tumor sizes grew to ˜5-6 mm in diameter, SP2007 or DMSO was administered intraperitoneally (I.P., total 2.4 mg/kg of SP2007) daily for two weeks. After two weeks treatment, mice were sacrificed and mammary tumors excised and processed for histological examination.

CDIP [10] = experiment: CDIP expression in HCT116 cells; assay type: cell-based, human; settings: 5 μM and 10 μM
Procedure: U2OS cells and EJ cells were exposed to piperlongumine (10 μM) and aliquots of the cells were taken at 6 and 12 hours and lysed to determine the level of Twist expression. […] HCT116 cells (p53-wt cells) were exposed to piperlongumine and aliquots of the cells were taken at 6 and 12 hours and lysed to determine the level of CDIP expression. […] U2OS cells (p53-wt cells) and EJ cells (non-functional p53) were exposed to various concentrations of piperlongumine (piper) and aliquots of the cells were lysed to determine the level of survival protein expression.

[11] = system: immortalized human breast epithelial cells; experiment: DNA damage markers in immortalized human breast epithelial cells; assay type: cell-based; settings: taxol 10 nM
Excerpt: The conditions and time of exposure are indicated in the legend of the figure.

[12] = system: EJ bladder carcinoma cells and HCT116 colon carcinoma cells; experiment: Cell death in transformed cancer cells; assay type: cell-based, human; settings: 2.5 μM and 10 μM
[13] = system: p120ctn/vimentin/N-cadherin complex; experiment: Vimentin immunoprecipitation / p120ctn Western blot in EJ cells; assay type: cell-based, human; settings: 10 μM
Procedure: It is well-established that Twist plays a major role in tumor development and metastasis. Thus, we investigated whether piperlongumine (SP2007) mechanistically regulates a key signaling pathway involving a complex of p120ctn/vimentin/N-cadherin which is a Twist target that promotes tumor cell migration and invasion/metastasis. EJ cells were treated with 10 μM piperlongumine or vehicle for 20 hours and cell lysates were subsequently immunoprecipitated by Vimentin antibody (Sigma Aldrich, St. Louis, Mo.) followed by western blot against p120ctn to analyze the association of the p120ctn/vimentin/N-cadherin complex.
EJ cells were treated with piperlongumine (SP2007) (10 μM) for 12 hours. Subsequently the cells were harvested and subjected to immunoprecipitations using vimentin antibodies (Sigma Aldrich) to precipitate the vimentin complex. Western blots were performed for p120 CTN and vimentin. DMSO (D) treated cells were used as control IP experiments.

COc1cc(/C=C/C(=O)N2CCC=CC2=O)cc(OC)c1OC [piperlongumine, N-(3,4,5,-trimethoxycinnamoyl)-Δ^3-piperidine-2-one]
growth of patient-derived tumor samples [1]: inhibits growth | tumor cell growth inhibition compared to known anti-cancer drugs (human cancer cell lines [2]; 0.1-30 μM, variety of human cancer cell lines): as well as or better than other well-known anti-cancer drugs | cell growth (human cancer cell lines [2]; glioblastoma cell lines): inhibits cell growth | cell growth (human cancer cell lines [2]; human melanoma and ovarian cancer cell lines): inhibits cell growth | cell growth (human cancer cell lines [2]; human renal cancer cell lines): inhibits cell growth | anti-tumor effect ([3]; 28 ug i.p. every 48 hours for 12 days (total 1.2 mg/kg), compared to DMSO): significant anti-tumor effects | blood vessel formation (angiogenesis) in the tumors ([3]; tumor mice): strongly inhibited | expression of apoptosis genes (p21, PUMA, Caspase 3) in tumor-mice ([3]; tumor mice): enhanced | CDIP expression (CDIP [4]): induces CDIP | mortality [5]: None of the mice died | gross histology in kidney, liver and lung ([5]; hematoxilin and eosin staining): no change in gross histology | growth of patient-derived tumor samples [6]: inhibits growth | blood-vessel formation at the tumor sites [7]: did not show considerable blood-vessel formation | expression of angiogenic marker VEGF (immunohistochemistry) ([7]; compared to vehicle): significantly reduced | sub-G1 apoptotic population of cells (human cancer cell lines [8]; HCT116 cells): increased | potencies for tumor cell growth inhibition and cell death/apoptosis (human cancer cell lines [8]; various human cancer cells, regardless of p53 status): 2.5 to 20 µM | expression of Twist, N-cadherin and p120 catenin [9]: inhibits expression | CDIP expression (CDIP [10]): induces the expression of CDIP | phosphorylated gamma-H2AX and p53 [11]: does not result in the induction | cell death in transformed cancer cells [12]: induced cell death | p120 in the complex precipitated with vimentin ([13]; 12 hours): p120 was not in the complex | association of the p120ctn/vimentin/N-cadherin complex ([13]; 20 hours): dissociation
